Reference: paper PMC8282797, “Strictly regulated agonist-dependent activation of AMPA-R is the key characteristic of TAK-653 for robust synaptic responses and cognitive improvement” (Scientific Reports, 2021)

Columns and labels:
[1] = tested on: rats; experiment: Seizure and abnormal behavior of LY451646 and AMPA in rats; type: in vivo, rat; settings: i.p.
[2] = tested on: 97 targets; experiment: In vitro selectivity profile (Ricerca); settings: 10 μM
[3] = tested on: BDNF mRNA; experiment: BDNF mRNA expression in mouse hippocampus; type: in vivo; settings: 3 and 10 mg/kg, p.o.
Method: (§1) Male ICR mice at 7 weeks old were treated with orally administered vehicle or TAK-653. For the repeated dose study, TAK-653 (0.3 mg/kg, p.o.) or vehicle was administered for 14 days. AMPA at designated doses was intravenously (i.v.) administered 1 h after oral administration. Three hours after i.v. administration of AMPA, right hippocampi were isolated from the mice by euthanasia and acutely frozen on dry ice. Total RNA from mouse hippocampus was extracted with RNeasy 96 kit (Qiagen, Hilden, Germany). Reverse transcription of total RNA was performed using the High-capacity cDNA Archive kit (Life Technologies, Carlsbad, CA). Real-time quantitative PCR was carried out using an ABI PRISM 7900HT sequence detection system (Life Technologies) using PCR reagents (Nippon Gene Co. Limited, Toyama, Japan). Primers used for BDNF analyses were as follows: BDNF forward primer, 5’-[…]-3’; BDNF reverse primer, 5’-[…]-3’; BDNF TaqMan probe, 5’-FAM- […]-TAMRA-3’. Primers used for Gadd45b analyses were as follows: Gadd45b forward primer, 5’-[…]-3’; Gadd45b reverse primer, 5’-GCGCCAGCCTCTGCAT-3’; Gadd45b TaqMan probe, 5’'-FAM-[…]-MGB-3’. […] Concentrations of GAPDH mRNA were used for internal controls and relative BDNF or Gadd45b mRNA/GAPDH mRNA levels were calculated.

[4] = tested on: BDNF and Gadd45b mRNA; experiment: AMPA-induced BDNF and Gadd45b mRNA after 14 days of dosing; type: in vivo, mouse; settings: pre-administration 0.3 mg/kg, p.o. for 14 days
Method: as §1

[5] = tested on: rGluA1i; experiment: Ca2+ influx assay in rGluA1i CHO cells (species difference); type: cell-based, rat; settings: 3 mM glutamate
Method: Ca^2+ influx assays using human GluA1/flip and human stargazin co-expressing CHO cells plated at 3 × 10^4 cells/well in 96-well Black Clear plates (Corning Incorporated, Corning, NY) were performed as previously described, with some modifications. For evaluation of the species difference, rat GluA1/flip expressing CHO cells were plated. For mutant channels, the human GluA1i S743A mutant was generated using the In-Fusion HD Cloning Kit (Takara Bio Inc., Kusatsu, Japan) according to the manufacturer's protocol and transiently introduced to CHO cells by Gene Pulser II Electroporation System (Bio-Rad Laboratories, Inc., Hercules, CA). Relative increases of intracellular Ca^2+ levels were monitored for 3 min with a fluorometric imaging plate reader (CellLux, Perkin Elmer Life and Analytical Sciences, Inc., Shelton, CT). […]
Human GluA1/flip and human stargazin co-expressing CHO cells were plated at 3×10^4 cells/well in 96-well Black Clear plate (Corning Incorporated, Corning, NY). […] Relative increases of intracellular Ca^2+ levels by compounds in the presence and absence of 3 mM L-glutamate were monitored for 3 min by fluorometric imaging plate reader (CellLux, Perkin Elmer Life and Analytical Sciences, Inc., Shelton, CT). Activity of compound was defined as integration value of fluorescence value of each detection point. […] EC50 values were calculated by logistic regression analysis.

SMILES | Abnormal behavior ([1]; 10 mg/kg) | Seizure ([1]; 30 mg/kg) | Selectivity against 97 targets [2] | BDNF mRNA levels in hippocampus ([3]; AMPA (3.5 mg/kg, i.v.)-treated mice) | BDNF mRNA levels in hippocampus ([3]; compound alone) | AMPA-induced BDNF and Gadd45b mRNA expression in hippocampus [4] | Fold difference in the EC50 value between rat and human receptors [5] [fold]
Cc1onc(O)c1CC(N)C(=O)O (stereo not drawn) [AMPA, alpha-amino-3-hydroxy-5-methyl-4-isoxazole-propionic acid] | abnormal behavior such as head turning | induced seizure |  |  |  |  | 
CC1=CN2CCS(=O)(=O)N=C2C(c2ccc(OC3CCCCC3)cc2)=N1 [TAK-653, 9-[4-(Cyclohexyloxy)phenyl]-7-methyl-3,4-dihydropyrazino[2,1-c][1,2,4]thiadiazine 2,2-dioxide] |  |  | highly selective | significantly increased | did not increase | did not affect | 1.1
